From publication PMC10363979, “Effects of bergapten on the pharmacokinetics of macitentan in rats both in vitro and in vivo” (Frontiers in Pharmacology, 2023)
Like-named read-outs stand apart in the source and are kept apart here.

How the values were obtained:
[1] = Stability of macitentan and ACT-132577 in rat plasma (UPLC-MS/MS method validation); type: in vitro ADME
Description: (§1) The concentrations of macitentan and ACT-132577 were determined by UPLC-MS/MS, which consisted of an Acquity I-class UPLC system (Waters Corp., Milford, MA, United States) and a Xevo TQD triple quadrupole mass spectrometer (Waters Corporation, Milford, MA, United States) equipped with an electrospray ionization source. Chromatographic separation was performed on an Acquity UPLC BEH C18 column (2.1 × 100 mm, 1.7 μm) at 40°C. The mobile phase was composed of acetonitrile (solvent A) and water containing 0.1% formic acid (solvent B, pH 2.74). The gradient condition of mobile phases was set with a flow rate of 0.4 mL/min as follows: 0–0.5 min, 20% A; 0.5–1 min, 70% A; 1–2 min, 95% A; 2–2.6 min, 20% A. Positive ion and selective multiple reaction monitoring (SRM) modes were used for quantitative analysis with the precursor to product ion transitions of m/z 588.9→203.4 for macitentan, 546.9→200.6 for ACT-132577, and 285.0→193.0 for diazepam. The cone voltage and collision voltage were 28V, 14 V for macitentan, 26V, 28 V for ACT-132577, and 35V, 30 V for diazepam. The mass spectrometry parameters of the source temperature, desolvation temperature, cone gas flow rate, and desolvation gas flow rate were 150°C, 500°C, 50 L/h, and 1000 L/h, respectively.
Method validation, including accuracy, precision, recovery, matrix effects and stability, was conducted in accordance with the guidelines of the FDA and the European Medicines Agency.

ET receptor = system: ET receptor; set-up: method as in Iglarz et al, 2008; settings: ref Iglarz et al, 2008, cited from earlier work; for Pharmacological activity of metabolite: Figure 1
[2] = cited from earlier work
[3] = Pharmacokinetic interaction between BP and macitentan in rats (plasma macitentan and ACT-132577); type: in vivo, Sprague-Dawley rats; settings: for Cmax / Tmax / AUC(0-inf) / AUC(0-t) / CL/F / MRT last / MRT inf / half-life: Sprague-Dawley, rat, plasma, po, 20 mg/kg, macitentan in plasma, macitentan 20 mg/kg oral; for CL/F: read-out: CLz/F (converted); for MRT last: read-out: MRT(0-t); for MRT inf: read-out: MRT(0-∞); for half-life: read-out: t1/2z (converted)
Description: as §1
Twelve Sprague-Dawley rats were randomly assigned to two groups. BP (10 mg/kg) was continuously administered daily to rats in the experimental group for 7 days, whereas the 0.5% CMC-Na was orally administered once a day to rats in the control group. Rats were fasted overnight before dosing, with free access to water. Macitentan (20 mg/kg) was intragastrically administered 30 min after the last dose of BP or 0.5% CMC-Na on the seventh day. Blood samples (300 μL) were collected from the tail vein into 1.5 mL Eppendorf tubes containing 10 μL heparin sodium at the time points of 0.083, 0.25, 0.5, 1, 2, 3, 4, 6, 8, 12, 24, and 36 h after macitentan administration. Plasma was obtained after centrifugation of the blood samples at 4,000 rpm for 10 min and stored at −80°C for further analysis. Before UPLC-MS/MS analysis, 100 μL plasma was mixed with 200 μL acetonitrile and 30 μL diazepam (500 ng/mL) and then fractionated at 13,000 rpm for 5 min at 4°C. A 150 μL sample of the supernatant was collected for analysis.
All assays were performed in triplicate, and the results are expressed as mean ± standard deviation. The pharmacokinetic parameters of elimination half-life (t1/2), area under the plasma concentration-time curve (AUC), maximal plasma concentration (Cmax), time to peak plasma concentration, plasma clearance (CLz/F), apparent volume of distribution, and mean residence time were calculated using a non-compartment model with DAS software (version 3.2.8, Lishui People’s Hospital, China). Data analysis, statistical comparisons, and graphs were generated using GraphPad Prism software (version 7.0; GraphPad Software Inc., San Diego, CA, United States). Student’s t-test of variance following the least significant difference method was used for comparisons between the control and experimental groups. Statistical significance was set at p < 0.05.

[4] = set-up: method as in Li et al, 2014; settings: rat, 3 mg/kg bergapten; ref Li et al, 2014; cited from earlier work
[5] = molecular target: human liver microsomes (HLMs) (Homo sapiens, UniProt P08684); experiment: Inhibition of macitentan metabolism (ACT-132577 formation) by bergapten and Michaelis-Menten kinetics in human liver microsomes; type: in vitro ADME
Chain of human liver microsomes (HLMs) (P08684 2-503): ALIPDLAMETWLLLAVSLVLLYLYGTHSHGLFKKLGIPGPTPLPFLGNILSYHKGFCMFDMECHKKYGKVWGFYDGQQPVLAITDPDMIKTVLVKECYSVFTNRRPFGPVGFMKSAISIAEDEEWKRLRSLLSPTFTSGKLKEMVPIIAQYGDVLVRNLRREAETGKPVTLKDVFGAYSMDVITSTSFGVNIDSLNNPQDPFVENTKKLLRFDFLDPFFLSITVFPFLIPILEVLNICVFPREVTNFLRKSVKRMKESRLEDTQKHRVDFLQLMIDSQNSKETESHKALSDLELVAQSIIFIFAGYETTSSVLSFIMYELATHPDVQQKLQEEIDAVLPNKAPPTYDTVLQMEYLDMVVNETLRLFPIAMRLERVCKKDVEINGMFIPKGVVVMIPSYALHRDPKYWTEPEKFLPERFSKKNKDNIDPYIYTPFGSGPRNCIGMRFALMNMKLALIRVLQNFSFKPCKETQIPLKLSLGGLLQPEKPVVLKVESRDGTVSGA
Description: as §1
(§2) The effects of BP on macitetan metabolism in vitro were investigated using RLMs, HLMs, and rCYP3A4. And, the formation of ACT-132577 was considered as an indicator of inhibitory effect. The 200 μL incubation system contained NADPH (1 mM), potassium phosphate buffer (100mM, pH = 7.4), macitentan, BP, and RLMs (0.3 mg/mL), HLMs (0.2 mg/mL), or rCYP3A4 (0.13 mg/mL). Firstly, a series concentration of macitentan with 1, 2.5, 5, 10, 25, 50 and 100 μM were included in the reaction buffer to determine the Km and Vmax values. Then, a series concentration of BP following 0, 0.01, 0.1, 1, 5, 10, 50 and 100 μM were used for the determination of IC50 value of BP against macitentan. […] The system was pre-incubated at 37°C for 5 min, and 10 μL NADPH was added to initiate the reaction. […]

[6] = molecular target: macitentan metabolism (formation of ACT-132577) (Homo sapiens, UniProt P08684); experiment: as above; type: in vitro ADME; settings: human, pH 7.4
Chain of macitentan metabolism (formation of ACT-132577) (Homo sapiens, UniProt P08684) (P08684 2-503): as above
Description: as §1, §2

[7] = Plasma Cmax of bergapten in rat (literature); type: in vivo; settings: 3 mg/kg bergapten, converted from ng/mL, ref Li et al, 2014
[8] = system: macitentan metabolism (formation of ACT-132577); experiment: Inhibition of macitentan metabolism (ACT-132577 formation) by bergapten and Michaelis-Menten kinetics in rat liver microsomes; type: in vitro ADME; settings: rat, rat liver microsomes, pH 7.4, probe macitentan; RLMs 0.3 mg/mL, 30 min, 37°C; read-out: IC50 of BP on macitentan metabolism
Description: as §1
(§3) The effects of BP on macitetan metabolism in vitro were investigated using RLMs, HLMs, and rCYP3A4. And, the formation of ACT-132577 was considered as an indicator of inhibitory effect. The 200 μL incubation system contained NADPH (1 mM), potassium phosphate buffer (100mM, pH = 7.4), macitentan, BP, and RLMs (0.3 mg/mL), HLMs (0.2 mg/mL), or rCYP3A4 (0.13 mg/mL). Firstly, a series concentration of macitentan with 1, 2.5, 5, 10, 25, 50 and 100 μM were included in the reaction buffer to determine the Km and Vmax values. Then, a series concentration of BP following 0, 0.01, 0.1, 1, 5, 10, 50 and 100 μM were used for the determination of IC50 value of BP against macitentan. […] The system was pre-incubated at 37°C for 5 min, and 10 μL NADPH was added to initiate the reaction. After incubation for 30 min at 37°C, 200 μL ice-cold acetonitrile and 30 μL diazepam (500 ng/mL) were added to terminate the reaction. The samples were centrifuged at 13,000 rpm for 5 min, and the supernatant fraction (150 μL) was collected for UPLC-MS/MS analysis.

[9] = system: Rat liver microsomes (RLMs); experiment: as above; type: in vitro ADME; settings: RLMs
Description: as §1, §3

[10] = molecular target: T1, recombinant human CYP3A4 (rCYP3A4) (Homo sapiens, UniProt P08684); experiment: Inhibition of macitentan metabolism (ACT-132577 formation) by bergapten and Michaelis-Menten kinetics in recombinant human CYP3A4; type: in vitro ADME
T1 construct: made in house
T1 sequence (P08684 whole entry): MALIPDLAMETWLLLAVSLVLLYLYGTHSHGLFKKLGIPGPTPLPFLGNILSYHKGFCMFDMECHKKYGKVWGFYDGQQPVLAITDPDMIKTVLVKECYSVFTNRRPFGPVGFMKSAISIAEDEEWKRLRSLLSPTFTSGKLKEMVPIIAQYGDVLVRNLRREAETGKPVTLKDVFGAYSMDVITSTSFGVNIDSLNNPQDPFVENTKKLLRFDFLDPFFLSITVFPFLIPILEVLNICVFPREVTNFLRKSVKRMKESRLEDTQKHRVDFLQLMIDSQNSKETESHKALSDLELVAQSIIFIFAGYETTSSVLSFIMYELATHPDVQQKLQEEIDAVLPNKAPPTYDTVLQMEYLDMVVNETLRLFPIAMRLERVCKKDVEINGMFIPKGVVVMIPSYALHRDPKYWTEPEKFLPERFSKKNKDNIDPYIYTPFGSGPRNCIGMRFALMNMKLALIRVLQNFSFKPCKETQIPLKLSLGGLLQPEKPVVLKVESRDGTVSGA
Description: as §1, §2

[11] = Inhibition of macitentan metabolism (ACT-132577 formation) by bergapten and Michaelis-Menten kinetics in rat liver microsomes; type: in vitro ADME; settings: rat, rat liver microsomes, pH 7.4; RLMs
Description: as §1, §3

[12] = set-up: method as in Sidharta et al, 2015; settings: estimated; ref Sidharta et al, 2015; cited from earlier work
[13] = single dose macitentan, ref Atsmon et al, 2013
[14] = control group (0.5% CMC-Na 7 days)
[15] = experimental group (BP 10 mg/kg daily 7 days)
[16] = with BP 10 mg/kg vs without, p < 0.05

SMILES: NS(=O)(=O)Nc1ncnc(OCCOc2ncc(Br)cn2)c1-c1ccc(Br)cc1 [ACT-132577]
- Stability RE (%) ([1]; 4°C, 24 h, 30 ng/mL): 106.81%
- Stability RE (%) ([1]; 4°C, 24 h, 900 ng/mL): 104.77%
- Stability RE (%) ([1]; 4°C, 24 h, 9000 ng/mL): 105.28%
- Stability RE (%) ([1]; Room temperature, 6 h, 30 ng/mL): 109.84%
- Stability RE (%) ([1]; Room temperature, 6 h, 900 ng/mL): 106.18%
- Stability RE (%) ([1]; Room temperature, 6 h, 9000 ng/mL): 107.44%
- Stability RE (%) ([1]; −80°C, 7days, 30 ng/mL): 105.76%
- Stability RE (%) ([1]; −80°C, 7days, 900 ng/mL): 107.26%
- Stability RE (%) ([1]; −80°C, 7days, 9000 ng/mL): 103.40%
- Pharmacological activity of metabolite (ET receptor): Active
- Potency relative to macitentan (less potent) (ET receptor; antagonism of the ET receptor): approximately five-fold
- Change in exposure in the presence of rifampin ([2]; ref Bruderer et al, 2012b): no significant change
- Concentrations when macitentan coadministered with St. John’s Wort ([2]; ref Huppertz et al, 2018): unaltered
- Exposure decrease in the presence of ketoconazole [2, 13]: 26%
- Difference in pharmacokinetic parameters, experimental vs control group ([3]; with BP 10 mg/kg vs without, p > 0.05): no significant differences

SMILES: CCCNS(=O)(=O)Nc1ncnc(OCC(=O)O)c1-c1ccc(Br)cc1 [ACT-373898]
- Pharmacological activity of metabolite (ET receptor): Inactive

SMILES: COc1c2ccoc2cc2oc(=O)ccc12 [BP, 5-methoxypsoralen]
- Cmax [4]: around 447.72 ± 30.61 ng/mL
- Inhibition mechanism (Lineweaver-Burk) ([5]; HLMs): competitive inhibition
- Ki ([5]; human, microsomes): 0.12 µM
- IC50 at 30 min [6]: 17.8 µM
- Cmax [7]: ~2100 nM
- IC50 at 30 min [8]: 3.84 µM
- Inhibition mechanism (Lineweaver-Burk) [9]: competitive inhibition
- Ki ([9]; competitive inhibition, read-out: Ki of BP on macitentan metabolism): 1.39 µM
- Inhibition mechanism (Lineweaver-Burk) ([10]; rCYP3A4): competitive inhibition
- IC50 ([10]; rCYP3A4 0.13 mg/mL, 30 min, 37°C, read-out: IC50 of BP on macitentan metabolism): 12.8 µM
- Ki ([10]; read-out: Ki of BP on macitentan metabolism): 5.06 µM

SMILES: CCCNS(=O)(=O)Nc1ncnc(OCCOc2ncc(Br)cn2)c1-c1ccc(Br)cc1 [macitentan]
- Stability RE (%) ([1]; 4°C, 24 h, 4 ng/mL): 107.57%
- Stability RE (%) ([1]; 4°C, 24 h, 160 ng/mL): 104.86%
- Stability RE (%) ([1]; 4°C, 24 h, 1,600 ng/mL): 106.50%
- Stability RE (%) ([1]; Room temperature, 6 h, 4 ng/mL): 113.51%
- Stability RE (%) ([1]; Room temperature, 6 h, 160 ng/mL): 109.43%
- Stability RE (%) ([1]; Room temperature, 6 h, 1,600 ng/mL): 105.63%
- Stability RE (%) ([1]; −80°C, 7days, 4 ng/mL): 104.39%
- Stability RE (%) ([1]; −80°C, 7days, 160 ng/mL): 103.80%
- Stability RE (%) ([1]; −80°C, 7days, 1,600 ng/mL): 105.44%
- Exposure reduction in the presence of rifampin ([2]; ref Bruderer et al, 2012b): four-fold
- Exposure reduced to, coadministered with St. John’s Wort ([2]; ref Huppertz et al, 2018): approximately half
- Exposure increase in the presence of ketoconazole [2, 13]: approximately two-fold
- Vmax of macitentan metabolism [9]: 0.50 nmol/min/mg protein
- Km at 30 min [11]: 4.82 µM
- Cmax ([3]; control group): 1340 ng/mL
- Tmax ([3]; control group): 1.92 ± 0.8 h
- AUC(0-inf) [3, 14]: 7900 ng·h/mL
- AUC(0-t) [3, 14]: 7870 ng·h/mL
- CL/F ([3]; control group): 43.3 mL/min/kg
- MRT last ([3]; control group): 5.48 ± 0.96 h
- MRT inf ([3]; control group): 5.6 ± 1.08 h
- half-life ([3]; control group): 4.53 ± 0.9 h
- AUC(0-inf) [3, 15]: 20400 ng·h/mL
- AUC(0-t) [3, 15]: 20300 ng·h/mL
- Cmax [3, 15]: 3000 ng/mL
- Tmax [3, 15]: 2.5 ± 0.55 h
- CL/F [3, 15]: 17.8 mL/min/kg
- MRT last [3, 15]: 5.91 ± 0.74 h
- MRT inf [3, 15]: 6.12 ± 0.8 h
- half-life [3, 15]: 5.07 ± 1.15 h
- CLz/F decreased by, experimental vs control group ([3]; with BP 10 mg/kg vs without): 0.59 fold
- AUC(0-t) enhanced by, experimental vs control group [3, 16]: 1.57 fold
- AUC(0-∞) enhanced by, experimental vs control group [3, 16]: 1.58 fold
- Cmax enhanced by, experimental vs control group [3, 16]: 1.24 fold
- oral bioavailability [12]: 74%
